Data published in ChEMBL document CHEMBL5055669, “Development of Potent and Selective Agonists for Complement C5a Receptor 1 with In Vivo Activity” (J Med Chem, 2021).
Activity calls are given as the source filed them. No cut-off for these calls is given here. Square brackets hold non-standard residues; d marks the D form. Peptide text beside a SMILES is read from it. Nva = CCC[C@H](N)C(=O)O; Abu = CC[C@H](N)C(=O)O

Assays:
[1] = biological target: T1, C3a anaphylatoxin chemotactic receptor (Homo sapiens, UniProt Q16581); assay: Agonist activity at human C3aR expressed in CHO cells assessed as induction of ERK1/2 phosphorylation at Thr202/Tyr204 residues incubated for 10 mins by AlphaLISA assay; type: functional, cell-based
T1 sequence (Q16581 whole entry): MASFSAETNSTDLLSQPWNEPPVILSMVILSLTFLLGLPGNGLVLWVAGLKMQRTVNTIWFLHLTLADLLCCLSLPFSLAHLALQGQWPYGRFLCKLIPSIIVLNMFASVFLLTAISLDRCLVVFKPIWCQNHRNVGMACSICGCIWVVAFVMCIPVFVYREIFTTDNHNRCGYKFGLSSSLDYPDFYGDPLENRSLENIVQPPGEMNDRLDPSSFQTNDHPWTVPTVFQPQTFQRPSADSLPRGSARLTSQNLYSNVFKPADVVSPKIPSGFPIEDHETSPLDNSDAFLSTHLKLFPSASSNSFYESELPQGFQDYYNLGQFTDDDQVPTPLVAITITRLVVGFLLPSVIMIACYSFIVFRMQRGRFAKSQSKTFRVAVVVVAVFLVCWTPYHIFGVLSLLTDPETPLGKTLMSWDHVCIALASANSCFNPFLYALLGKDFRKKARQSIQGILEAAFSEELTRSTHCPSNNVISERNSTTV

[2] = biological target: T2, C5a anaphylatoxin chemotactic receptor 1 (Homo sapiens, UniProt P21730); assay: Agonist activity at human C5aR1 expressed in CHO cells assessed as induction of ERK1/2 phosphorylation at Thr202/Tyr204 residues incubated for 10 mins by AlphaLISA assay; type: functional, cell-based
T2 sequence (P21730 whole entry): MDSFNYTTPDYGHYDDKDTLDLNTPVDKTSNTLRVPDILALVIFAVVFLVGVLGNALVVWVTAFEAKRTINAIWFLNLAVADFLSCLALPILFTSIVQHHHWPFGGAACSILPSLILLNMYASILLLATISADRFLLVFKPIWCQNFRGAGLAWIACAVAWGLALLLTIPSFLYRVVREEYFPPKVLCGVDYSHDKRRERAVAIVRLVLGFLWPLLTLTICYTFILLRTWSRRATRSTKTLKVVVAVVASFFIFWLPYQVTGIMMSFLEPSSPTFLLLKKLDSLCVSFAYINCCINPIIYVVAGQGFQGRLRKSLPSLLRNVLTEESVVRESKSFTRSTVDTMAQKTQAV

Homo sapiens = species: Homo sapiens; assay: Selectivity ratio of EC50 for agonist activity at human C3aR expressed in CHO cells to EC50 for agonist activity at human C5aR1 expressed in CHO cells; type: cell-based
[3] = biological target: T3, C5a anaphylatoxin chemotactic receptor 1 (Mus musculus) (UniProt P30993); assay: Agonist activity at C5aR1 in mouse RAW264.7 cells assessed as induction of ERK1/2 phosphorylation at Thr202/Tyr204 residues at up to 100 uM incubated for 10 mins by AlphaLISA assay; type: functional, cell-based
T3 sequence (whole entry): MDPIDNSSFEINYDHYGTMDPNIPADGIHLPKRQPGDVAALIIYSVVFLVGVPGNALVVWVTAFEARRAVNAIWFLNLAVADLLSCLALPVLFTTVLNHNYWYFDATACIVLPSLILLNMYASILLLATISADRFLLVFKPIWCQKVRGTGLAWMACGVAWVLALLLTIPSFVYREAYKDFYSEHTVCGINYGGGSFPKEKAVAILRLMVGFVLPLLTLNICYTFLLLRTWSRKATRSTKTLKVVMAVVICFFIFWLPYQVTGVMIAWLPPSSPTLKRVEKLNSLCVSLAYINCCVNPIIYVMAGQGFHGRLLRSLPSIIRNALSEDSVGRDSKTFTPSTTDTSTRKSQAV

[4] = biological target: T4, C5a anaphylatoxin chemotactic receptor 1 (Mus musculus, UniProt P30993); assay: Agonist activity at C5aR1 in mouse RAW264.7 cells assessed as induction of ERK1/2 phosphorylation at Thr202/Tyr204 residues incubated for 10 mins by AlphaLISA assay; type: functional, cell-based
T4 sequence (P30993 whole entry): T3 sequence (whole entry)

[5] = biological target: T3, C5a anaphylatoxin chemotactic receptor 1 (Mus musculus); assay: Agonist activity at C5aR1 in mouse RAW264.7 cells assessed as induction of ERK1/2 phosphorylation at Thr202/Tyr204 residues at up to 100 uM incubated for 10 mins in presence of JPE1375 by AlphaLISA assay; type: functional, cell-based
MDM [6] = assay: Antiinflammatory activity in human MDM cells assessed as suppression of LPS-induced IL-6 production at 1 uM measured after 24 hrs by ELISA; type: functional, cell-based
MDM [7] = assay: Antiinflammatory activity in human MDM cells assessed as suppression of LPS-induced TNFalpha production at 1 uM measured after 24 hrs by ELISA; type: functional, cell-based
[8] = Ratio of EC50 for agonist activity at C5aR1 in mouse RAW264.7 cells to EC50 for agonist activity at human C5aR1 expressed in CHO cells; type: cell-based
Mus musculus = assay: Antiinflammatory activity in C57BL/6J mouse assessed as polymorphonuclear leucocyte mobilization at 50 ug/kg, iv measured after 30 mins by hemacolor-staining based microscopic analysis relative to control; type: functional; conditions: dose 50 µg/kg, 0.5 h

| Compound | EC50 ([1]; read-out: pEC50 (converted)) [nM] | EC50 [2] [nM] | Ratio EC50 (Homo sapiens) | also measured |
| --- | --- | --- | --- | --- |
| CC(C)C[C@H](NC(=O)[C@@H]1CCCN1C(=O)[C@H](CCCCN)NC(=O)[C@@H](N)Cc1ccccc1)C(=O)N[C@@H](C)C(=O)N[C@@H](C)C(=O)N[C@H](C)C(=O)N[C@@H](CCCNC(=N)N)C(N)=O |  |  |  | EC50 ([1]; read-out: EC50): > 100000 nM |
| CC(=O)N[C@@H](Cc1ccccc1)C(=O)N[C@@H](CCCCN)C(=O)N1CCC[C@H]1C(=O)N[C@@H](CC(C)C)C(=O)N[C@@H](C)C(=O)N[C@H](C(=O)N[C@H](C)C(=O)N[C@@H](CCCNC(=N)N)C(=O)O)[C@@H](C)O | 69800 | 34.1 | 2050 |  |
| CC(C)C[C@H](NC(=O)[C@@H]1CCCN1C(=O)[C@H](CCCCN)NC(=O)[C@@H](N)Cc1ccccc1)C(=O)N[C@@H](C)C(=O)N[C@@H](C)C(=O)N[C@H](C)C(=O)N[C@@H](CCCNC(=N)N)C(=O)O | 131000 |  |  | Activity [3]: inactive |
| CC(C)C[C@H](NC(=O)[C@@H]1CCCN1C(=O)[C@H](CC(C)C)NC(=O)[C@@H]1CCCN1C(=O)[C@H](C)NC(=O)[C@@H](N)Cc1ccccc1)C(=O)N[C@H](C)C(=O)N[C@@H](CCCNC(=N)N)C(=O)O | 282 | 708 | 0.4 |  |
| CC(C)C[C@H](NC(=O)[C@H](C)NC(=O)[C@@H](NC(=O)[C@@H]1CCCN1C(=O)[C@H](CCCCN)NC(=O)[C@@H](N)Cc1ccccc1)[C@@H](C)O)C(=O)N[C@H](C)C(=O)N[C@@H](CCCNC(=N)N)C(=O)O | 37.1 | 10.4 | 3.7 |  |
| CC(C)C[C@H](NC(=O)[C@H](C)NC(=O)[C@H](CC(C)C)NC(=O)[C@@H]1CCCN1C(=O)[C@H](CCCCN)NC(=O)[C@@H](N)Cc1ccccc1)C(=O)N[C@H](C)C(=O)N[C@@H](CCCNC(=N)N)C(=O)O | 435 | 4.35 | 109 |  |
| CC(C)C[C@H](NC(=O)[C@@H]1CCCN1C(=O)[C@H](CC(C)C)NC(=O)[C@H](C)NC(=O)[C@H](CCCCN)NC(=O)[C@@H](N)Cc1ccccc1)C(=O)N[C@H](C)C(=O)N[C@@H](CCCNC(=N)N)C(=O)O | 61.9 | 19.5 | 3.26 |  |
| CC(C)C[C@H](NC(=O)[C@H](C)NC(=O)[C@H](CC(C)C)NC(=O)[C@@H]1CCCN1C(=O)[C@H](CCCCN)NC(=O)[C@H](C)N)C(=O)N[C@H](C)C(=O)N[C@@H](CCCNC(=N)N)C(=O)O | 532 | 1430 | 0.4 |  |
| CC[C@H](NC(=O)[C@H](C)NC(=O)[C@H](CC(C)C)NC(=O)[C@@H]1CCCN1C(=O)[C@H](CCCCN)NC(=O)[C@H](Cc1ccccc1)NC(C)=O)C(=O)N[C@H](C)C(=O)N[C@@H](CCCNC(=N)N)C(=O)O (Ac-FKPLA[Abu][dA]R-OH) | 14500 | 5.78 | 2420 | EC50 [4]: 2300 nM; Activity [5]: inactive; Activity (MDM [6]): Active; Activity (MDM [7]): Active; Ratio EC50 [8]: 1000; Activity (Mus musculus): 41% |
| CC(=O)N[C@@H](Cc1ccccc1)C(=O)N[C@@H](CCCCN)C(=O)N1CCC[C@H]1C(=O)N[C@@H](CC(C)C)C(=O)N[C@@H](C)C(=O)N[C@@H](Cc1ccccc1)C(=O)N[C@H](C)C(=O)N[C@@H](CCCNC(=N)N)C(=O)O (Ac-FKPLAF[dA]R-OH) | 3760 | 73.3 | 51.5 |  |
| CCC[C@H](NC(=O)[C@H](C)NC(=O)[C@H](CC(C)C)NC(=O)[C@@H]1CCCN1C(=O)[C@H](CCCCN)NC(=O)[C@H](Cc1ccccc1)NC(C)=O)C(=O)N[C@@H](C)C(=O)N[C@@H](CCCNC(=N)N)C(=O)O (Ac-FKPLA[Nva]AR-OH) | 752 |  |  |  |
| CC(C)C[C@H](NC(=O)[C@@H]1CCCN1C(=O)[C@H](C)NC(=O)[C@@H]1CCCN1C(=O)[C@H](CCCCN)NC(=O)[C@@H](N)Cc1ccccc1)C(=O)N[C@H](C)C(=O)N[C@@H](CCCNC(=N)N)C(=O)O | 11 | 44.4 | 0.25 |  |
| CC(C)C[C@H](NC(=O)[C@@H]1CCCN1C(=O)[C@H](CC(C)C)NC(=O)[C@@H]1CCCN1C(=O)[C@H](CCCCN)NC(=O)[C@H](C)N)C(=O)N[C@H](C)C(=O)N[C@@H](CCCNC(=N)N)C(=O)O | 631 | 19100 | 0.033 |  |
| CC(C)C[C@H](NC(=O)[C@@H]1CCCN1C(=O)[C@H](CCCCN)NC(=O)[C@@H](N)Cc1ccccc1)C(=O)N[C@@H](C)C(=O)N[C@@H](C)C(=O)N[C@@H](C)C(=O)N[C@@H](CCCNC(=N)N)C(=O)O | 17300 |  |  |  |
| CC(C)C[C@H](NC(=O)[C@H](C)NC(=O)[C@@H](NC(=O)[C@@H]1CCCN1C(=O)[C@H](CCCNC(=N)N)NC(=O)[C@@H](N)Cc1ccccc1)[C@@H](C)O)C(=O)N[C@H](C)C(=O)N[C@@H](CCCNC(=N)N)C(=O)O | 9.04 | 24.4 | 0.4 |  |
| CC(C)C[C@H](NC(=O)[C@@H]1CCCN1C(=O)[C@H](CCCCN)NC(=O)[C@@H](N)Cc1ccccc1)C(=O)N1CCC[C@H]1C(=O)N[C@@H](C)C(=O)N[C@H](C)C(=O)N[C@@H](CCCNC(=N)N)C(=O)O | 54800 |  |  |  |
| CC(C)C[C@H](NC(=O)[C@@H]1CCCN1C(=O)[C@H](CC(C)C)NC(=O)[C@@H]1CCCN1C(=O)[C@H](CCCCN)NC(=O)[C@@H](N)Cc1ccccc1)C(=O)N[C@H](C)C(=O)N[C@@H](CCCNC(=N)N)C(=O)O (H-FKPLPL[dA]R-OH) | 129 |  |  |  |
| CC(=O)N[C@@H](Cc1ccccc1)C(=O)N[C@H]1CCCCNC(=O)[C@H](CCCNC(=N)N)NC(=O)[C@@H](C)NC(=O)[C@H](C)NC(=O)[C@H](C)NC(=O)[C@H](CC(C)C)NC(=O)[C@@H]2CCCN2C1=O |  |  |  | EC50 ([1]; read-out: EC50): > 100000 nM |
| CC(=O)N[C@@H](Cc1ccccc1)C(=O)N[C@@H](CCCCN)C(=O)N1CCC[C@H]1C(=O)N[C@@H](CC(C)C)C(=O)N[C@@H](C)C(=O)N[C@@H](C)C(=O)N[C@H](C)C(=O)N[C@@H](CCCNC(=N)N)C(=O)O (Ac-FKPLAA[dA]R-OH) |  |  |  | EC50 [4]: 22900 nM; Activity [5]: inactive |
| C[C@H](NC(=O)[C@H](C)NC(=O)[C@@H](NC(=O)[C@@H]1CCCN1C(=O)[C@H](CCCCN)NC(=O)[C@@H](N)Cc1ccccc1)[C@@H](C)O)C(=O)N[C@H](C)C(=O)N[C@@H](CCCNC(=N)N)C(=O)O | 7010 | 895 | 7.8 |  |
| CC[C@@H](C)[C@@H](NC(=O)[C@H](C)NC(=O)[C@H](CC(C)C)NC(=O)[C@@H]1CCCN1C(=O)[C@H](CCCCN)NC(=O)[C@H](Cc1ccccc1)NC(C)=O)C(=O)N[C@@H](C)C(=O)N[C@@H](CCCNC(=N)N)C(=O)O | 429 | 1.54 | 214 |  |
